Assay results: article PMC8591201, “Anti-Tumor Activity of AZD4547 Against NTRK1 Fusion Positive Cancer Cells Through Inhibition of NTRKs” (Frontiers in Oncology, 2021)

Assays:
[1] = tested on: T1, TRKB; assay: cells; design: species or system Ba/F3; CellTiter-Glo anti-proliferation of Ba/F3 cells transformed with ETV6-NTRK fusions; details: Mus musculus, BaF3, 72 h, read-out: LOXO195 GI50
T1 construct: ETV6 (1-336)-NTRK2 kinase domain (455-822) fusion expressed in Ba/F3
Experimental: (§1) To obtain the GI50 value of a substance, cell viability was measured using MTT (G4000, Promega, USA) for KM12(Luc) cell and Cell titer glo (G7572, Promega, USA) for other cell lines. For adherent cells, cells were seeded at 5,000 cells/well in a 96-well plate and treated with a substance one day after cell seeding. For suspension cells, 10,000 cells/well were seeded and the substance was treated after 4 h stabilization of cells. The substance was treated at 10 points of 1:3 serial dilution (0–100 µmol/L) for 72 h. For MTT assay, 15 µL dye solution was added to each well and incubated 4 h at 37°C. 100 µL of solubilization solution was added and followed 1 hr incubation. Absorbance at 570 nm of each well was recorded using EnVision microplate reader (Perkin Elmer). For Cell titer glo assay, Cell titer glo reagent was treated in each well and measured the luminescence by EnVision microplate reader (Perkin Elmer). Viable cells in each well were normalized by using 0.5% DMSO-treated wells (100%). The inhibitor dose−response curve was fitted and GI50 values were calculated using Prism 7.0 software (GraphPad). All assays were performed in duplicate and the standard deviation (SD) was determined from two independent experiments. To investigate the inhibitory activity of AZD4547 against clinically relevant TRK mutants which have resistance to the known TRK inhibitors ([8], [44]), we established Ba/F3 cell lines harboring the ETV6-NTRKs fusion genes (NTRK1, NTRK1G595R, NTRK1G667A, NTRK1G667C, NTRK1G667S and NTRK2) ( Supplementary Figure 2 ). The mutation status of each established cell line was confirmed by sequencing of its cDNA ( Supplementary Figure 2 ). The anti-proliferation activity of AZD4547 was then measured in each cell line ( Figure 2A and Table S2 ). […] However, AZD4547 has no inhibitory activity against Ba/F3 harboring clinically relevant TRKs mutants including TRKA G595R, TRKA G667S, TRKA G667C and TRKA G667A. We next evaluated if AZD4547 is capable of suppressing the phosphorylation of TRKA/B in Ba/F3 cell lines ( Figure 2B ). […] Also, phosphorylation of TRKA/B is almost completely abolished using 1 µM of AZD4547. […] (A) Summary of GI50s of AZD4547 against Ba/F3: TRKA mutants or TRKB. Cell viability after 72 h exposure to the indicated inhibitors, determined by using a cell titer glo assay in duplicate mode. Data was plotted as mean GI50 ± SD of two independent experiments. (B) AZD4547 inhibits phosphorylation of TRKA/B and PLC-gamma in Ba/F3 harboring TRKA and TRKB, respectively. […] Data are representative of three independent experiments.

[2] = tested on: T2, TRKA G667A; assay: cells; design: species or system Ba/F3; CellTiter-Glo anti-proliferation of Ba/F3 cells transformed with ETV6-NTRK fusions; details: Mus musculus, BaF3, 72 h, read-out: LOXO195 GI50
T2 construct: ETV6 (1-336)-NTRK1 kinase domain (434-790) fusion expressed in Ba/F3
Experimental: as §1

[3] = tested on: T3, TRKA G667S; assay: cells; design: species or system Ba/F3; CellTiter-Glo anti-proliferation of Ba/F3 cells transformed with ETV6-NTRK fusions; details: Mus musculus, BaF3, 72 h, read-out: LOXO195 GI50
T3 construct: ETV6 (1-336)-NTRK1 kinase domain (434-790) fusion expressed in Ba/F3
Experimental: as §1

[4] = tested on: T4, TRKA; assay: cells; design: species or system Ba/F3; CellTiter-Glo anti-proliferation of Ba/F3 cells transformed with ETV6-NTRK fusions; details: Mus musculus, BaF3, 72 h, read-out: LOXO195 GI50
T4 construct: ETV6 (1-336)-NTRK1 kinase domain (434-790) fusion expressed in Ba/F3
Experimental: as §1

[5] = tested on: T5, TRKA G667C; assay: cells; design: species or system Ba/F3; CellTiter-Glo anti-proliferation of Ba/F3 cells transformed with ETV6-NTRK fusions; details: Mus musculus, BaF3, 72 h, read-out: LOXO195 GI50
T5 construct: ETV6 (1-336)-NTRK1 kinase domain (434-790) fusion expressed in Ba/F3
Experimental: as §1

[6] = tested on: T6, TRKA G595R; assay: cells; design: species or system Ba/F3; CellTiter-Glo anti-proliferation of Ba/F3 cells transformed with ETV6-NTRK fusions; details: Mus musculus, BaF3, 72 h, read-out: LOXO195 GI50
T6 construct: ETV6 (1-336)-NTRK1 kinase domain (434-790) fusion expressed in Ba/F3
Experimental: as §1

[7] = in vitro; design: CellTiter-Glo viability of parental Ba/F3 cells, counter-screen; details: mouse, parental ba/f3 cells
Experimental: To obtain the GI50 value of a substance, cell viability was measured using MTT (G4000, Promega, USA) for KM12(Luc) cell and Cell titer glo (G7572, Promega, USA) for other cell lines. For adherent cells, cells were seeded at 5,000 cells/well in a 96-well plate and treated with a substance one day after cell seeding. For suspension cells, 10,000 cells/well were seeded and the substance was treated after 4 h stabilization of cells. The substance was treated at 10 points of 1:3 serial dilution (0–100 µmol/L) for 72 h. For MTT assay, 15 µL dye solution was added to each well and incubated 4 h at 37°C. 100 µL of solubilization solution was added and followed 1 hr incubation. Absorbance at 570 nm of each well was recorded using EnVision microplate reader (Perkin Elmer). For Cell titer glo assay, Cell titer glo reagent was treated in each well and measured the luminescence by EnVision microplate reader (Perkin Elmer). Viable cells in each well were normalized by using 0.5% DMSO-treated wells (100%). The inhibitor dose−response curve was fitted and GI50 values were calculated using Prism 7.0 software (GraphPad). All assays were performed in duplicate and the standard deviation (SD) was determined from two independent experiments. […] Cell viability after 72 h exposure to the indicated inhibitors, determined by using a cell titer glo assay in duplicate mode. […]

SMILES: C[C@@H]1CCc2ncc(F)cc2[C@H]2CCCN2c2ccn3ncc(c3n2)C(=O)N1 [LOXO195]
- GI50 [2]: 24.1 ± 8.3 nM
- GI50 [3]: 35.5 ± 2.5 nM
- CC50 at 72 h [7]: > 2000 nM
